Read-outs that look alike come from different tables or passages of the source.
Legend:
[1] = system: cellular dehydrogenase activity
nuOXPHOS transcripts = format: cell-based, mouse
cytochrome c = format: cell-based, mouse
OXPHOS gene expression = format: cell-based, mouse
mtOXPHOS transcripts = format: cell-based, mouse
reactive oxygen species = format: cell-based, mouse
[2] = system: mitochondrial membrane potential; format: cell-based, mouse
[3] = composite Z-score vs DMSO wells, Conc 20 μM
[4] = composite Z-score vs mock-treated (DMSO) wells, Conc 20 μM
[5] = 20 μM, composite Z-score vs DMSO
[6] = 24.06 μM, composite Z-score vs DMSO
[7] = Conc 20 μM, normalized score vs mock-treated (DMSO) wells
[8] = composite Z-score vs mock-treated (DMSO) wells, concentration of each compound in μM
[9] = composite Z-score vs DMSO, Conc 20 μM
[10] = normalized composite Z-score vs mock-treated (DMSO) wells, Conc 20 μM

Cc1c(N(C)CS(=O)(=O)[O-])c(=O)n(-c2ccccc2)n1C.[Na+] [dipyrone]
MTT [1]: −1.243
MTT [1, 3]: −1.908
nucOX (nuOXPHOS transcripts; [3]): −0.930
cyt c (cytochrome c): 0.356
cyt c (cytochrome c; [3]): 0.337
GE-HTS (OXPHOS gene expression; [3]): −0.955
mitoOX (mtOXPHOS transcripts; [3]): −0.820
ROS (reactive oxygen species): −0.683
ROS (reactive oxygen species; [3]): −1.148
ΔΨm [2]: −0.738
ΔΨm [2, 3]: −0.760
Viability (C2C12 myotubes): −0.607
Viability (C2C12 myotubes; [3]): −0.809

NCCc1ccc(O)c(O)c1 [dopamine]
MTT [1]: −0.754
nucOX (nuOXPHOS transcripts): −0.112
cyt c (cytochrome c): 0.007
GE-HTS (OXPHOS gene expression): −0.337
mitoOX (mtOXPHOS transcripts): −0.655
ROS (reactive oxygen species): −0.046
ΔΨm [2]: −0.849
Viability (C2C12 myotubes): −0.964

COc1ccc2c(c1OC)OC[C@@H](c1ccc(OC)c(OC)c1OC)C2 [duartin, dimethyl ether]
MTT [1, 4]: −0.975
nucOX (nuOXPHOS transcripts; [4]): −1.362
cyt c (cytochrome c; [4]): −0.531
GE-HTS (OXPHOS gene expression; [4]): −1.156
mitoOX (mtOXPHOS transcripts; [4]): −0.571
ROS (reactive oxygen species; [4]): 0.796
ΔΨm [2, 4]: 0.556
Viability (C2C12 myotubes; [4]): 1.330

CCCCOc1ccc(C(=O)CCN2CCCCC2)cc1 [dyclonine]
MTT [1, 3]: −0.882
nucOX (nuOXPHOS transcripts; [3]): −0.377
cyt c (cytochrome c): 0.597
cyt c (cytochrome c; [3]): 1.243
GE-HTS (OXPHOS gene expression; [3]): −0.690
mitoOX (mtOXPHOS transcripts; [3]): −1.117
ROS (reactive oxygen species; [3]): 0.379
ΔΨm [2, 3]: −1.085
Viability (C2C12 myotubes; [3]): −0.640

CC[N+](C)(C)c1cccc(O)c1 [edrophonium]
MTT [1, 5]: −0.015
MTT [1, 6]: 0.901
nucOX (nuOXPHOS transcripts; [5]): −1.001
nucOX (nuOXPHOS transcripts; [6]): −0.611
cyt c (cytochrome c; [5]): 1.045
cyt c (cytochrome c; [6]): 0.177
GE-HTS (OXPHOS gene expression; [5]): −0.806
GE-HTS (OXPHOS gene expression; [6]): −0.803
mitoOX (mtOXPHOS transcripts; [5]): −0.183
mitoOX (mtOXPHOS transcripts; [6]): −1.083
ROS (reactive oxygen species; [5]): 1.006
ROS (reactive oxygen species; [6]): 0.343
ΔΨm [2, 5]: 0.391
ΔΨm [2, 6]: −0.161
Viability (C2C12 myotubes; [5]): −0.291
Viability (C2C12 myotubes; [6]): 0.250

O=C(O)c1cc(O)c2c(c1)C(=O)c1cc(O)cc(O)c1C2=O [emodic acid]
MTT (composite Z-score) [1, 7]: −0.976
nucOX (composite Z-score) (nuOXPHOS transcripts; [7]): −1.210
cyt c (composite Z-score) (cytochrome c; [7]): 0.505
GE-HTS (composite Z-score) (OXPHOS gene expression; [7]): −1.336
mitoOX (composite Z-score) (mtOXPHOS transcripts; [7]): −1.286
ROS (composite Z-score) (reactive oxygen species; [7]): 1.403
ΔΨm (composite Z-score) [2, 7]: −0.966
Viability (composite Z-score) (C2C12 myotubes; [7]): 0.262

O=C(CC[N+](=O)[O-])OC[C@H]1O[C@@H](O)[C@H](OC(=O)CC[N+](=O)[O-])[C@@H](OC(=O)CC[N+](=O)[O-])[C@@H]1OC(=O)CC[N+](=O)[O-] [endecaphyllin X]
MTT [1, 8]: −1.007
nucOX (nuOXPHOS transcripts; [8]): −0.566
cyt c (cytochrome c; [8]): −0.219
GE-HTS (OXPHOS gene expression; [8]): −0.660
mitoOX (mtOXPHOS transcripts; [8]): −0.741
ROS (reactive oxygen species; [8]): −0.292
ΔΨm [2, 8]: 0.142
Viability (C2C12 myotubes; [8]): 0.158

ClC1=C(Cl)C2(Cl)C3C4CC(C5OC45)C3C1(Cl)C2(Cl)Cl (stereo not drawn) [endrin]
MTT [1, 5]: −1.710
nucOX (nuOXPHOS transcripts; [5]): −0.738
cyt c (cytochrome c; [5]): 0.726
GE-HTS (OXPHOS gene expression; [5]): −0.680
mitoOX (mtOXPHOS transcripts; [5]): −0.385
ROS (reactive oxygen species; [5]): 0.770
ΔΨm [2, 5]: 0.129
Viability (C2C12 myotubes; [5]): 0.522

CCC(C)C(=O)O[C@@H]1C[C@@]2(C)[C@H](c3ccoc3)OC(=O)CC23OC2(C)OC34[C@H](OC(=O)C(C)C)[C@@]3(O)[C@@H](OC(=O)C5(C)OC5C)[C@@]5(C)C[C@]3(O)[C@@](C)([C@H]5CC(=O)OC)C14O2 (stereo partly drawn) [entandrophragmin]
MTT [1, 4]: −0.737
nucOX (nuOXPHOS transcripts; [4]): 0.149
cyt c (cytochrome c; [4]): −0.703
GE-HTS (OXPHOS gene expression; [4]): 0.467
mitoOX (mtOXPHOS transcripts; [4]): 1.061
ROS (reactive oxygen species; [4]): 1.351
ΔΨm [2, 4]: 0.113
Viability (C2C12 myotubes; [4]): 0.672

CN[C@@H](C)[C@H](O)c1ccccc1 [ephedrine]
MTT [1, 9]: −2.342
nucOX (nuOXPHOS transcripts; [9]): −0.100
cyt c (cytochrome c; [9]): 0.077
GE-HTS (OXPHOS gene expression; [9]): −0.074
mitoOX (mtOXPHOS transcripts; [9]): −0.056
ROS (reactive oxygen species; [9]): 1.633
ΔΨm [2, 9]: −0.834
Viability (C2C12 myotubes; [9]): −0.536

C=C[C@@](C)(O)CCC1C(=C)CCC2[C@@](C)(CO)CCC[C@]12C (stereo partly drawn) [epi(13)torulosol]
MTT [1, 10]: 0.603
nucOX (nuOXPHOS transcripts; [10]): 0.342
cyt c (cytochrome c; [10]): 0.483
GE-HTS (OXPHOS gene expression; [10]): 0.491
mitoOX (mtOXPHOS transcripts; [10]): 0.643
ROS (reactive oxygen species; [10]): 1.180
ΔΨm [2, 10]: 0.022
Viability (C2C12 myotubes; [10]): 0.367

Reference: patent US20090143279A1 (priority 2007, published 2009)
